The record followed here is patent US20230158066A1, “ENCAPSULATED CARBONYL IRON SALT COMPOSITIONS AND PROCESS THEREOF” (priority 2020, published 2023).

This data set is described as follows: Particle density (bulk density), USP <616> method 1. It is filed as physicochemical. The conditions noted are these: untapped powder, W/V0. The text has this: Particle density or Bulk density is the density of the solids (determined by the composition), which determines the particle density, together with the amount of occluded air. It's the ratio of mass to volume (including the inter-particulate void volume) of an untapped powder sample. It depends on both the density of powder particle and arrangement of the particles. The bulk density influenced by preparation method, treatment and storage of the samples.
The method used as per the reference of USP general chapter <616> method 1. • 1. Pass a quantity of material sufficient to complete the test through sieve greater than equal to 1 mm, if necessary to break up agglomerates that may formed. • 2. Fill the test sample approx. 150 g with 0.1% accuracy (W) in dry gradual 250 mL cylinder (readable to 2 mL) carefully. • 3. Read the unsettled apparent volume (V0) to the nearest graduated unit. • 4. Calculate the particle density by following formula;

On to `O=C([O-])/C=C/C(=O)[O-].[Fe+2]` [Ferrous fumarate], for which the Particle density is 2.14 g/mL. As for Ferrous Ascorbate, the Particle density was 0.75 g/mL. Compound Ferrous sulfate came in with a Particle density of 1.26 g/mL.
